Patent US20230382923A1, “FUSED TETRACYCLIC QUINAZOLINE DERIVATIVES AS INHIBITORS OF ERBB2” (EnLiven Therapeutics, Inc., priority 2021, published 2023)

What was measured:
[1] = target: phosphorylated EGFR (pEGFR) (Homo sapiens (Human), UniProt P00533); assay: Detection of phosphorylated EGFR (pEGFR) by AlphaLISA in A431 cells; assay type: cell-based; settings: A431 cells (10% FBS), 4 hours incubation, EGF 30 ng/mL for 10 minutes
Protocol: […] were performed to measure phosphorylated EGFR levels using A431 cells (10% FBS). A431 (1.0*10^4cells/40 μl/well) cells were seeded in 384 well. Compounds were dissolved in DMSO, serially diluted in DMSO and then were added, mixed, and incubated for 4 hours at 37° C., […]. Following the 4-hours incubation, cells were stimulated for 10 minutes with EGF (Invitrogen, cat #PHG0311) at a final concentration of 30 ng/mL in the incubator. The media was aspirated and cells were lysed in 10 μL lysis buffer with protease and phosphatase inhibitors (PerkinElmer, cat #ALSU-PEGFR-A50K). The plates were placed on a shaker for 5 minutes and then incubated for 30 min at 4° C. for complete lysis. The lysate was transferred to an Optiplate (Perkin Elmer, cat #6007290).
Acceptor mix (PerkinElmer, cat #ALSU-PEGFR-A50K) was prepared just before use and 5 μL was dispensed to all the wells, followed by a 1.5-2 h incubation at room temperature in dark. The donor mix (PerkinElmer, cat #ALSU-PEGFR-A50K) was prepared under low light conditions prior to use and 5 μl of donor mix was added to all the wells under subdued lighting or green filters. The plates were placed on a shaker for 5 min, sealed, and incubated overnight at room temperature in dark. Plates were read on the Envision (PerkinElmer) using standard AlphaLISA settings.
The percentage of inhibition on EGFR phosphorylation was calculated following equation: % Inhibition=100×(LumHC−LumSample)/(LumHC−LumLC). The low and high controls (LC/HC) are generated from lysate from wells with cells treated with DMSO or […] Staurosporine (BioAustralis, cat #BIA-S1086), […]. IC50 values were calculated by fitting the Curve using XLfit (v5.3.1.3), equation 201: Y=Bottom+(Top−Bottom)/(1+10^((LogIC50−X)*HillSlope)).

[2] = target: phosphorylated ERBB2 (pERBB2) (Homo sapiens (Human), UniProt P04626); assay: Detection of phosphorylated ERBB2 (pERBB2) by ELISA in BT-474 cells; assay type: cell-based; settings: four hours incubation with compound
Chain of phosphorylated ERBB2 (pERBB2) (P04626 23-1255): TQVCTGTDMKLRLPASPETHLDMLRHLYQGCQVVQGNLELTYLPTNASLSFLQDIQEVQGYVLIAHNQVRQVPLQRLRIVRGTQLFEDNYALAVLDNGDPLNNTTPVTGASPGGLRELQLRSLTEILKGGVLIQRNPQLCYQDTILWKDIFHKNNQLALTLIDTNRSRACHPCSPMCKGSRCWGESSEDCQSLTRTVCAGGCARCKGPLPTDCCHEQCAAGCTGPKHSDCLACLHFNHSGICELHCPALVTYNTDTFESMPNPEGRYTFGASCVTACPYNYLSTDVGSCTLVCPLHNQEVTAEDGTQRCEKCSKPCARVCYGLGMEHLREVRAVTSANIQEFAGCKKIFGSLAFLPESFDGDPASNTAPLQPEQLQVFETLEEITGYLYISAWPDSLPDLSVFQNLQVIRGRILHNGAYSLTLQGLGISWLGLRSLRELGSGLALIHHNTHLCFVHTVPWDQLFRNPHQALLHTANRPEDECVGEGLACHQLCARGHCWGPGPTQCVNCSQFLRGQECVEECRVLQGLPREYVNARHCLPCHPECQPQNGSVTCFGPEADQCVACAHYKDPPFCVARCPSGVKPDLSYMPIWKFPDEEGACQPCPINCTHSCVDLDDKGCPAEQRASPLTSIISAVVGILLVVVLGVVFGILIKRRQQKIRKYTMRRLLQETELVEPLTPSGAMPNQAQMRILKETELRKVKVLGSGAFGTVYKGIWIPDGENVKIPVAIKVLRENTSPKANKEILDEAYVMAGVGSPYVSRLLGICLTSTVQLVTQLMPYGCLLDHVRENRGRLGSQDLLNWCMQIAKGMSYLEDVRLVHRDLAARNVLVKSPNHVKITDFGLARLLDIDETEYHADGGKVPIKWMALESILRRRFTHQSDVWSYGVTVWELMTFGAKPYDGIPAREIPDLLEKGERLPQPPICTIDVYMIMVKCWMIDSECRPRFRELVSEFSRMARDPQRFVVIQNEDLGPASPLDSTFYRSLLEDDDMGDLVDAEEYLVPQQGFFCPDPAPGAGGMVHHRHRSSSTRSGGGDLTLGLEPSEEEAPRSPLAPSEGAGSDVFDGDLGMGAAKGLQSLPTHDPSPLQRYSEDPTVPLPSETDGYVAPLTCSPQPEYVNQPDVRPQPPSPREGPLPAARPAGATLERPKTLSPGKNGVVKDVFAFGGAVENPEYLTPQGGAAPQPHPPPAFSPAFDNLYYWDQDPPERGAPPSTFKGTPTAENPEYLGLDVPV
Protocol: BT-474 cells were seeded into a 96-well at 2.0*10^4cells/100 μl/well. Compounds were dissolved and serially diluted in DMSO. The compounds were then were added, mixed, and incubated for four hours at 37° C., 5% CO2. […] Following the four hour incubation with compounds, cell lysates were prepared. Plates were centrifuged for 5 min at 3000 RPM, and supernatant was removed from each well. Cells were washed 3 times by resuspension in 150 μl PBS, followed by centrifugation and removal of the supernatant, as above. 100 μl of cell lysis buffer (Boston BioProducts, cat #BP-115D) supplied with 1×complete ULTRA cocktail inhibitor (Thermo ScientificTM, cat #78443) was then added to the washed cells. Cells were incubated with lysis buffer for 1 hour at 4° C., and then stored at -80° C. Enzyme-linked immunosorbent assays (ELISA) were performed to measure phosphorylated ERBB2 levels. […] The next day, plates were washed with PBS+0.05% Tween20 (PBST). 150 μl of 5% BSA blocking solution was added for 1 hour at room temperature, with shaking. Plates were washed with PBST. Cell lysates were thawed and 100 μl of lysate was added to the ELISA plate. The plates were incubated for 2 hours at room temperature, with shaking. ELISA plates were then washed with PBST and 100 μl of an HRP-labeled detection antibody that binds phosphorylated tyrosine (R&D Systems, cat #841913) was added to each well. Plates were incubated for 1 hour at room temperature, with shaking. Plates were then washed with PBST, and 100 μl TMB substrate solution (R&D Systems, cat #DY999) was added. Plate were incubated in the dark for 20 minutes at room temperature. 50 μl of Stop solution (R&D Systems, cat #DY994) (50 μl) was added to each well and mixed. […] The remaining kinase activity by calculated using the following formula: % Relative activity=100×([…]). The low and high control values (“LC” and “HC”) were generated from lysate from wells without cells or with cells treated with 0.1% DMSO, respectively.

Chain of phosphorylated EGFR (pEGFR) (P00533 25-1210): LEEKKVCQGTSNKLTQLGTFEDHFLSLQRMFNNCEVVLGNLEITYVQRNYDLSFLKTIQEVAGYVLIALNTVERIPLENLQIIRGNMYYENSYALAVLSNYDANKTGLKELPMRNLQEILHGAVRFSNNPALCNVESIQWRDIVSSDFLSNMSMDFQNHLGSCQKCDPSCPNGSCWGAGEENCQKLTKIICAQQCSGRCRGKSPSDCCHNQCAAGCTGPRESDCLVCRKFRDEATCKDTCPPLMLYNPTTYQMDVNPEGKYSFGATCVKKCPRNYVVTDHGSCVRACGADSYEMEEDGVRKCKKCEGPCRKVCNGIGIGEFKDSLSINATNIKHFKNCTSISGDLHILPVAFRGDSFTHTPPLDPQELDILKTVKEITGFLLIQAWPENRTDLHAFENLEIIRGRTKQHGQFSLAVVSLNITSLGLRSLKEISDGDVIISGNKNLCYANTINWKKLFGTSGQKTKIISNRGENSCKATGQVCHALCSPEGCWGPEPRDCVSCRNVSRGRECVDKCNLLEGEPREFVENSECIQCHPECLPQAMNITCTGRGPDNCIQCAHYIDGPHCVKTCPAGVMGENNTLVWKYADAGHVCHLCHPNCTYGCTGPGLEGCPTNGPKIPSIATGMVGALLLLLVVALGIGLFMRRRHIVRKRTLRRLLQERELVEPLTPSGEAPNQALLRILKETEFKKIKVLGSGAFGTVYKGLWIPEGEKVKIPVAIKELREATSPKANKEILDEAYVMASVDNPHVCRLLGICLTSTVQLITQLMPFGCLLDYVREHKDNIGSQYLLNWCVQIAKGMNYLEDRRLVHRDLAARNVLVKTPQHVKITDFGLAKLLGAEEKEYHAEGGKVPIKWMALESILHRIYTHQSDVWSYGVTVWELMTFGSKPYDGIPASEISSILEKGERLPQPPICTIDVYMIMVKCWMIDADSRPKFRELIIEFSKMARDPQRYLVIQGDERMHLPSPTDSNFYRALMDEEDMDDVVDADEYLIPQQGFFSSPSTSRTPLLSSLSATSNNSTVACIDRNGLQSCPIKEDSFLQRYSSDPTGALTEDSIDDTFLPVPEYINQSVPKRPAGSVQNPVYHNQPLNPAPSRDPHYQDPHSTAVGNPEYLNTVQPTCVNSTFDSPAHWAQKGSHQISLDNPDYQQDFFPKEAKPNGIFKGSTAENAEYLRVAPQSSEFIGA

SMILES | IC50 [1] [µM] | IC50 [2] [µM]
[2H]C([2H])(/C=C/C(=O)N1CCN2CC1COc1cc3ncnc(Nc4cc(C)c(Oc5ccn6ncnc6c5)cc4F)c3nc12)N(C)C (stereo in doubt) [Compound 58, (E)-1-((10S)-4-((4-([1,2,4]triazolo[1,5-a]pyridin-7-yloxy)-2-fluoro-5-methylphenyl)amino)-7,8,10,11-tetrahydro-9H-6,10-methanopyrimido[4′,5′:5,6]pyrido[3,2-b][1,4,7]oxadiazonin-9-yl)-4-(dimethylamino)but-2-en-1-one-4,4-d2] | 0.869 | 0.0055
Cc1cc(Nc2ncnc3cc4c(nc23)N2CCN(C(=O)/C=C/[C@H]3CCCN3C)C(CO4)C2)ccc1Oc1ccn2ncnc2c1 (stereo in doubt) [Compound 27, (E)-1-((10S)-4-((4-([1,2,4]triazolo[1,5-a]pyridin-7-yloxy)-3-methylphenyl)amino)-7,8,10,11-tetrahydro-9H-6,10-methanopyrimido[4′,5′:5,6]pyrido[3,2-b][1,4,7]oxadiazonin-9-yl)-3-((R)-1-methylpyrrolidin-2-yl)prop-2-en-1-one] | 5.26 | 0.0144
Cc1cc(Nc2ncnc3cc4c(cc23)N2CCN(C(=O)/C=C/CN(C)C)C(CO4)C2)ccc1Oc1ccn2ncnc2c1 (stereo in doubt) [Compound 9, (E)-1-((10S)-4-((4-([1,2,4]triazolo[1,5-a]pyridin-7-yloxy)-3-methylphenyl)amino)-7,8,10,11-tetrahydro-9H-6,10-methano[1,4,7]oxadiazonino[3,2-g]quinazolin-9-yl)-4-(dimethylamino)but-2-en-1-one] | > 10 | 0.0189
Cc1cc(Nc2ncnc3cc4c(nc23)N2CCN(C(=O)/C=C/CN(C)C)C(CO4)C2)ccc1Oc1ccc2c(c1)ncn2C (stereo in doubt) [Compound 6, (E)-4-(dimethylamino)-1-((10S)-4-((3-methyl-4-((1-methyl-1H-benzo[d]imidazol-5-yl)oxy)phenyl)amino)-7,8,10,11-tetrahydro-9H-6,10-methanopyrimido[4′,5′:5,6]pyrido[3,2-b][1,4,7]oxadiazonin-9-yl)but-2-en-1-one] | 2.19 | 0.0342
Cc1ccc(Oc2ccc(Nc3ncnc4cc5c(nc34)N3CCN(C(=O)/C=C/CN(C)C)C(CO5)C3)cc2C)cn1 (stereo in doubt) [Compound 21, (E)-4-(dimethylamino)-1-((10S)-4-((3-methyl-4-((6-methylpyridin-3-yl)oxy)phenyl)amino)-7,8,10,11-tetrahydro-9H-6,10-methanopyrimido[4′,5′:5,6]pyrido[3,2-b][1,4,7]oxadiazonin-9-yl)but-2-en-1-one] | 0.621 | 0.025
C=C(F)C(=O)N1CCN2CC1COc1cc3ncnc(Nc4ccc(Oc5ccn6ncnc6c5)c(C)c4)c3nc12 (stereo in doubt) [Compound 23, 1-((10S)-4-((4-([1,2,4]triazolo[1,5-a]pyridin-7-yloxy)-3-methylphenyl)amino)-7,8,10,11-tetrahydro-9H-6,10-methanopyrimido[4′,5′:5,6]pyrido[3,2-b][1,4,7]oxadiazonin-9-yl)-2-fluoroprop-2-en-1-one] | > 10 | 0.209
C=CC(=O)N1CCN2C[C@@H]1COc1cc3ncnc(Nc4ccc(Cc5ccn6ncnc6c5)c(C)c4)c3nc12 [Compound 19, 1-((10R)-4-((4-([1,2,4]triazolo[1,5-a]pyridin-7-ylmethyl)-3-methylphenyl)amino)-7,8,10,11-tetrahydro-9H-6,10-methanopyrimido[4′,5′:5,6]pyrido[3,2-b][1,4,7]oxadiazonin-9-yl)prop-2-en-1-one] | – | 1.93

Continued, values first:

IC50 [1] [µM] | IC50 [2] [µM] | SMILES
7.3 | 0.0245 | Cc1cc(Nc2ncnc3cc4c(nc23)N2CCN(C(=O)/C=C/[C@H]3CCCN3C)C(CO4)C2)c(F)cc1Oc1ccn2ncnc2c1 (stereo in doubt) [Compound 41, (E)-1-((10S)-4-((4-([1,2,4]triazolo[1,5-a]pyridin-7-yloxy)-2-fluoro-5-methylphenyl)amino)-7,8,10,11-tetrahydro-9H-6,10-methanopyrimido[4′,5′:5,6]pyrido[3,2-b][1,4,7]oxadiazonin-9-yl)-3-((R)-1-methylpyrrolidin-2-yl)prop-2-en-1-one]
0.337 | 0.036 | Cc1cc(Nc2ncnc3cc4c(nc23)N2CCN(C(=O)/C=C/CN(C)C)C(CO4)C2)c(F)cc1Oc1cncc(F)c1 (stereo in doubt) [Compound 44, (E)-4-(dimethylamino)-1-((10S)-4-((2-fluoro-4-((5-fluoropyridin-3-yl)oxy)-5-methylphenyl)amino)-7,8,10,11-tetrahydro-9H-6,10-methanopyrimido[4′,5′:5,6]pyrido[3,2-b][1,4,7]oxadiazonin-9-yl)but-2-en-1-one]
> 10 | 0.0185 | CN(C)C/C=C/C(=O)N1CCN2CC1COc1cc3ncnc(Nc4ccc(Oc5ccn6ncnc6c5)cc4)c3nc12 (stereo in doubt) [Compound 31, (E)-1-((10S)-4-((4-([1,2,4]triazolo[1,5-a]pyridin-7-yloxy)phenyl)amino)-7,8,10,11-tetrahydro-9H-6,10-methanopyrimido[4′,5′:5,6]pyrido[3,2-b][1,4,7]oxadiazonin-9-yl)-4-(dimethylamino)but-2-en-1-one]
2.65 | 0.0315 | CNC/C=C/C(=O)N1CCN2CC1COc1cc3ncnc(Nc4cc(C)c(Oc5ccn6ncnc6c5)cc4F)c3nc12 (stereo in doubt) [Compound 49, (E)-1-((10S)-4-((4-([1,2,4]triazolo[1,5-a]pyridin-7-yloxy)-2-fluoro-5-methylphenyl)amino)-7,8,10,11-tetrahydro-9H-6,10-methanopyrimido[4′,5′:5,6]pyrido[3,2-b][1,4,7]oxadiazonin-9-yl)-4-(methylamino)but-2-en-1-one]
> 10 | 0.635 | Cc1cc(Nc2ncnc3cc4c(nc23)N2CCN(C(=O)/C=C/CN(C)C)C(CCO4)C2)ccc1Oc1ccn2ncnc2c1 (stereo not shown) [Compound 52, (E)-1-(4-((4-([1,2,4]triazolo[1,5-a]pyridin-7-yloxy)-3-methylphenyl)amino)-7,8,11,12-tetrahydro-6,10-methanopyrimido[4′,5′:5,6]pyrido[3,2-b][1,4,7]oxadiazecin-9 (10H)-yl)-4-(dimethylamino)but-2-en-1-one]
0.465 | 0.0177 | Cc1cc(Nc2ncnc3cc4c(nc23)N2CCN(C(=O)/C=C/CN(C)C)C(CO4)C2)ccc1Oc1ccn2ccnc2c1 (stereo in doubt) [Compound 34, (E)-4-(dimethylamino)-1-((10S)-4-((4-(imidazo[1,2-a]pyridin-7-yloxy)-3-methylphenyl)amino)-7,8,10,11-tetrahydro-9H-6,10-methanopyrimido[4′,5′:5,6]pyrido[3,2-b][1,4,7]oxadiazonin-9-yl)but-2-en-1-one]
> 10 | 0.0185 | Cc1cc(Nc2ncnc3cc4c(c(F)c23)N2CCN(C(=O)/C=C/CN(C)C)C(CO4)C2)ccc1Oc1ccn2ncnc2c1 (stereo in doubt) [Compound 40, (E)-1-((10S)-4-((4-([1,2,4]triazolo[1,5-a]pyridin-7-yloxy)-3-methylphenyl)amino)-5-fluoro-7,8,10,11-tetrahydro-9H-6,10-methano[1,4,7]oxadiazonino[3,2-g]quinazolin-9-yl)-4-(dimethylamino)but-2-en-1-one]
– | 0.012 | Cc1cc(Nc2ncnc3ccc(NC4=NC(C)(C)CO4)cc23)ccc1Oc1ccn2ncnc2c1 [Tucatinib, tucatinib, reference compound]
